The values below come from patent US20100168243A1, “Renin Inhibitors” (priority 2007, published 2010).

This experiment concerns the target T1, trypsin-activated recombinant human renin (Homo sapiens, UniProt P00797).
T1 sequence (P00797 67-406): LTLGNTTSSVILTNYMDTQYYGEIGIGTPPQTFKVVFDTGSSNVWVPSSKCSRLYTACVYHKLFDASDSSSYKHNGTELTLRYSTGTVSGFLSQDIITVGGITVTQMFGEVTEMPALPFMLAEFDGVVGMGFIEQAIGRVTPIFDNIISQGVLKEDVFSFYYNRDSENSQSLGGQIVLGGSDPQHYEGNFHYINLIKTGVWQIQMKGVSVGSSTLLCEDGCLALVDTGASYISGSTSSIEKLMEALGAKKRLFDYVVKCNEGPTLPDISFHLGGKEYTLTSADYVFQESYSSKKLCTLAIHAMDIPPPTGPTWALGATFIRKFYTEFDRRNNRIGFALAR
Put plainly: IC50 for renin, fluorescence of quenched peptide substrate (protocols of Example 3 or 4). The experiment is classed as biochemical. The settings on record: protocols described in Example 3 or 4; class according to the IC50 values; read-out: IC50 for renin, class in words. The method, then:
The sequence of this peptide corresponds to the sequence of human angiotensinogen. The following test protocol is used: All reactions are carried out in a flat bottom white opaque microtiter plate. A 4 μL aliquot of 400 μM renin substrate (DABCYL-γ-Abu-[…]EDANS) in 192 μL assay buffer (50 mM BES, 150 mM NaCl, 0.25 mg/mL bovine serum albumin, pH7.0) is added to 4 μL of test compound in DMSO at various concentrations ranging from 10 μM to 1 nM final concentrations. Next, 100 μL of trypsin-activated recombinant human renin (final enzyme concentration of 0.2-2 nM) in assay buffer is added, and the solution is mixed by pipetting. The increase in fluorescence at 495 nm (excitation at 340 nm) is measured for 60-360 min at rt using a Perkin-Elmer Fusion microplate reader. The slope of a linear portion of the plot of fluorescence increases as a function of time is then determined, and the rate is used for calculating percent inhibition in relation to uninhibited control. […]
All reactions are carried out in a low volume, black, 384 well microtiter plate (Greiner Bio-one). […] After 2 hours of reaction at room temperature, the plates were read on a Viewlux™ (Perkin Elmer) with an excitation/emission of 485/530 nm, and using a 505 nm cutoff filter. […]
The IC50 values of the disclosed compounds for renin were determined according to the protocols described in Example 3 or 4. […]

Turning to `COCCCC[C@](O)(CCN(C)C(=O)[C@H]1C[C@@H](N)[C@@H](O)C1)c1cccc(Cl)c1-c1cccc(C)c1` [Compound 11, (1S,3R,4S)-3-amino-N—((S)-3-(6-chloro-3′-methylbiphenyl-2-yl)-3-hydroxy-7-methoxyheptyl)-4-hydroxy-N-methylcyclopentanecarboxamide], the half-inhibitory concentration (IC50) is 0.01 to 50 nM.

Take `COCCCCC(O)(CCN(C)C(=O)[C@H]1C[C@@H](N)[C@@H](O)C1)c1cccc(Cl)c1-c1cccc(C)c1` (stereo partly drawn) [Compound 1, (1S,3R,4S)-3-amino-N-[3-(6-chloro-3′-methyl-2-biphenylyl)-3-hydroxy-7-(methyloxy)heptyl]-4-hydroxy-N-methylcyclopentanecarboxamide]: the IC50 was in the range of 0.01 to 50 nM.
